In patent US6084072A, “Purified lectin and methods of use” (The Regents of the University of Michigan, priority 1993, dated 2000):
Entries after “also recorded” stand apart in the source; their conditions may differ.

How the values were obtained:
amaranthin = amaranthin (Amaranthus caudatus, UniProt Q71QF2); test: Hapten inhibition of amaranthin/asialo-ovine submaxillary mucin precipitation; assay type: binding; conditions: for Relative Inhibition potency ACA: N-Acetylgalactosamine = 1
Procedure: Precipitation assays were conducted in 1.5 ml centrifuge tubes by the method of So and Goldstein. Indicated amounts of glycoprotein were added to 80 μg of amaranthin, and the total volume was adjusted to 250 μl with phosphate buffered saline. The tubes were incubated at 37° C. and then kept at 4° C. for 2 days. The precipitates were centrifuged, washed with cold Phosphate buffered saline, dissolved in 0.05 N NaOH and analyzed for protein by the method of Lowery et al. using bovine serum albumin as the standard. Hapten inhibition assays were carried out using 80 μg of amaranthin, 5 μg of asialo-ovine submaxillary mucins, and the indicated sugar concentrations. Inhibition was determined relative to the amount of precipitate formed in the control with no sugar added. All precipitation assays were conducted in duplicate to bring the tolerance within ±5% and the amount of precipitate formed average.

PNA = molecular target: T1, PNA (Arachis hypogaea, UniProt P02872); test: Hapten inhibition of PNA/asialoglycophorin precipitation; assay type: binding; conditions: Galactose = 1; 40 μg PNA, 6 μg asialoglycophorin
T1 construct: purchased E.Y. Laboratories, San Mateo, Calif; (donated by Dr. A. Chu)
T1 sequence (P02872 24-273): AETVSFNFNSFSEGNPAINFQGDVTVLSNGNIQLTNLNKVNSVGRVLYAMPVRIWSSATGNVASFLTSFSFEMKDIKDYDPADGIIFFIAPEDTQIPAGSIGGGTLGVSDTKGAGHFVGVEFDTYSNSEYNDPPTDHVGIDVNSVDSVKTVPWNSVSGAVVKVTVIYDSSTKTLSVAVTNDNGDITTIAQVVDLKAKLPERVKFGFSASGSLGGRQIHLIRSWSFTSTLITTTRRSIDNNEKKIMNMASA
Procedure: Precipitation reactions with PNA were carried out similarly, except that 40 μg of PNA was used. Hapten inhibition studies with PNA used 40 μg of PNA, 6 μg of asialoglycophorin, and the indicated sugar concentrations.

Sequence of amaranthin (Q71QF2 entry or part of it): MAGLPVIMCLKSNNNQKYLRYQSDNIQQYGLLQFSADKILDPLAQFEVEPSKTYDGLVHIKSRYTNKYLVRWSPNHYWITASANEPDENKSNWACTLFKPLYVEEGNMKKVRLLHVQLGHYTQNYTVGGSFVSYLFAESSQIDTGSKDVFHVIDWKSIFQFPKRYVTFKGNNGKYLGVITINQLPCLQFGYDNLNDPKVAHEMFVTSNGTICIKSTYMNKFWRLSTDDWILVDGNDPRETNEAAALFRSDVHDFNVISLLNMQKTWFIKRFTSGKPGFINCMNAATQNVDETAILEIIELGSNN

Compound | IC50 (amaranthin) [µM] | Relative Inhibition potency ACA (amaranthin) | further results
COC(=O)[C@H](CO[C@H]1O[C@H](CO)[C@H](O)[C@H](O)[C@H]1NC(C)=O)NC(=O)OCc1ccccc1 [3-O-(2-N-acetyl-α-D-galactopyranosyl-N-(benzyloxcarbonyl)-L-serinemethyl ester] | 53 | 15 | 
CO[C@H]1[C@@H](O)[C@@H](CO)O[C@@H](O[C@H]2[C@@H](O)[C@@H](CO)O[C@H](OCc3ccccc3)[C@@H]2NC(C)=O)[C@@H]1O [3-O-Methyl Galβ1,3GalNAcα-O-benzyl] | 2 | 395 | Relative Inhibition potency PNA (PNA): < 10
CC(=O)N[C@H]1[C@@H](OCc2ccccc2)O[C@H](CO)[C@H](O)[C@@H]1O[C@@H]1O[C@H](C)[C@H](O)[C@H](O)[C@H]1O [D-Fubcβ1,3GalNAcα-O-benzyl] | 1.9 | 416 | inhibition of amaranthin/AOSM precipitation, in words (amaranthin): very good inhibitor; Relative Inhibition potency PNA (PNA): 11
C[C@H]1OC(O)[C@H](O)[C@@H](O)[C@H]1O (stereo partly drawn) [D-Fucose] |  | < 0.002 | 
CO[C@H]1O[C@H](CO)[C@H](O)[C@H](O[C@@H]2O[C@H](CO)[C@@H](O)[C@H](O)[C@H]2O)[C@H]1NC(C)=O [Gacβ1,3GalNAcα-O-CH3] | 36 | 22 | times less potent than Galβ1,3GalNAcα-O--CH3 (amaranthin; inhibitor of amaranthin): 10
CC(=O)N[C@H]1[C@@H](O[C@H]2[C@@H](O)[C@@H](CO)OC(O)[C@@H]2O)O[C@H](CO)[C@H](O)[C@@H]1O (stereo partly shown) [GalNAcα1,3Gal] | 310 | 2.5 | 
CC(=O)N[C@H]1[C@@H](OC[C@H]2OC(O)[C@H](O)[C@@H](O)[C@H]2O)O[C@H](CO)[C@H](O)[C@@H]1O (stereo partly shown) [GalNAcα1,6Gal] | 210 | 3.8 | 
CC(=O)N[C@H]1[C@H](OC[C@H]2OC(O)[C@H](O)[C@@H](O)[C@H]2O)O[C@H](CO)[C@H](O)[C@@H]1O (stereo partly shown) [GalNAcβ1,6Gal] | 1000 | 0.8 | 
N[C@H]1C(O)O[C@H](CO)[C@H](O)[C@@H]1O (stereo partly shown) [Galactosamine] |  | < 0.002 | inhibition of amaranthin/AOSM precipitation, in words (amaranthin): very poor inhibitors
OC[C@H]1OC(O)[C@H](O)[C@@H](O)[C@H]1O (stereo partly shown) [Galactose] |  | < 0.002 | inhibition of amaranthin/AOSM precipitation, in words (amaranthin): very poor inhibitors; also recorded: not by galactose
OC[C@H]1O[C@H](OC[C@H]2OC(O)[C@H](O)[C@@H](O)[C@@H]2O)[C@H](O)[C@@H](O)[C@H]1O (stereo partly shown) [Galα1,6Glc] |  | < 0.008 | 
CC(=O)N[C@H]1CO[C@H](CO)[C@H](O)[C@@H]1O[C@@H]1O[C@H](CO)[C@H](O)[C@H](O)[C@H]1O [Galβ1,3(2-acetamido-2-deoxy-1,5-anhydrogalactitol)] | 5.8 | 136 | times less potent than Galβ1,3GalNAc (amaranthin; inhibitor of amaranthin): 1.7; Relative Inhibition potency PNA (PNA): 14
CC(=O)N[C@H]1[C@@H](Oc2ccccc2[N+](=O)[O-])O[C@H](CO)[C@H](O)[C@@H]1O[C@@H]1O[C@H](CO)[C@H](O)[C@H](O)[C@H]1O [Galβ1,3GalNAcα-O-o-nitrophenyl] | 2.1 | 376 | 
C=CCO[C@@H]1O[C@H](CO)[C@H](O)[C@H](O[C@@H]2O[C@H](CO)[C@H](O)[C@H](O)[C@H]2O)[C@H]1NC(C)=O [Galβ1,3GalNAcβ-O-CH2 -CH = CH2] | 34 | 23 | 
CC(=O)N[C@H]1C(O)O[C@H](CO)[C@@H](O)[C@@H]1O[C@@H]1O[C@H](CO)[C@H](O)[C@H](O)[C@H]1O (stereo partly shown) [Galβ1,3GlcNAC] |  | < 0.08 | inhibition of amaranthin/AOSM precipitation, in words (amaranthin): very poor inhibitor
C=CCO[C@@H]1O[C@H](CO)[C@@H](O)[C@H](O[C@@H]2O[C@H](CO)[C@H](O)[C@H](O)[C@H]2O)[C@H]1NC(C)=O [Galβ1,3GlcNAcβ-O-CH2 --CH--CH2] |  | < 0.08 | 
CC(=O)N[C@H]1[C@@H](OCc2ccccc2)O[C@H](CF)[C@H](O)[C@@H]1O[C@@H]1O[C@H](CO)[C@H](O)[C@H](O)[C@H]1O [Galβ1,3[6-F]GalNAcα-O-benzyl] | 1.7 | 465 | inhibition of amaranthin/AOSM precipitation, in words (amaranthin): inhibition is equivalent to Galβ1,3GalNAca-O-benzyl
OC[C@H]1O[C@@H](O[C@H]2[C@H](O)[C@@H](O)C(O)O[C@@H]2CO)[C@H](O)[C@@H](O)[C@H]1O (stereo partly shown) [Galβ1,4Glc] |  | < 0.01 | 
CC(=O)N[C@H]1[C@H](O[C@H]2[C@@H](O)[C@@H](CF)O[C@H](OCc3ccccc3)[C@@H]2NC(C)=O)O[C@H](CO)[C@@H](O)[C@@H]1O [GlcNAcβ1,3[6-F]GalNAcα-O-benzyl] |  | < 0.08 | 
OC[C@H]1OC(O)[C@H](O)[C@@H](O)[C@@H]1O (stereo partly shown) [Glucose] |  | < 0.002 | 
CO[C@H]1O[C@H](CO)[C@H](O)[C@H](O)[C@H]1NC(=O)c1ccccc1 [Methyl (2-N-benzamido)-α-galactosaminide] | 850 | 0.9 | 
CO[C@H]1O[C@H](CO)[C@H](O)[C@H](O)[C@H]1NC(=O)c1ccc([N+](=O)[O-])cc1 [Methyl (2-N-p-nitrobenzamindo)-α-galactosaminide] | 140 | 5.6 | 
CO[C@H]1O[C@H](CO)[C@H](O)[C@H](O)[C@H]1OC(C)=O [Methyl (2-O-acetyl)-α-galactoside] | 2140 | 0.4 | times less potent than GalNAcα-O--CH3 (amaranthin; inhibitor of amaranthin): 8.6
CO[C@H]1O[C@H](CO)[C@H](O)[C@H](O)[C@H]1OC(=O)c1ccc([N+](=O)[O-])cc1 [Methyl (2-O-p-nitrobenzoate)-α-galactoside] |  | < 0.1 | 
CO[C@@H]1C[C@@H](O)[C@@H](O)[C@@H](CO)O1 [Methyl (2-deoxy)-α-galactose] |  | < 0.08 | 
CO[C@H]1O[C@H](CO)[C@H](O)[C@H](O)[C@H]1NC(C)=O [Methyl N-acetyl-α-galactosaminide] | 250 | 3.2 | inhibition of amaranthin/AOSM precipitation, in words (amaranthin): best monosaccharide inhibitor
CO[C@@H]1O[C@H](CO)[C@H](O)[C@H](O)[C@H]1NC(C)=O [Methyl N-acetyl-β-galactosaminide] | 11300 | 0.07 | 
COC(=O)CCCCCCCCO[C@H]1O[C@H](CO)[C@H](O)[C@H](O[C@@H]2O[C@H](CO)[C@H](O)[C@H](O[C@]3(C(=O)O)C[C@H](O)[C@@H](NC(C)=O)[C@H]([C@H](O)[C@H](O)CO)O3)[C@H]2O)[C@H]1NC(C)=O [NeuAcα2,3Galβ1,3GalNAcα-O-(CH2)8 --CO2 CH3] | 1.8 | 439 | inhibition of amaranthin/AOSM precipitation, in words (amaranthin): does not decrease inhibitory potency
CC(=O)N[C@H]1[C@@H](Oc2ccc([N+](=O)[O-])cc2)O[C@H](CO)[C@H](O)[C@@H]1O [p-NitrophenylN-acetyl-α-galactosiminide] | 450 | 1.8 | 
CC(=O)N[C@H]1[C@H](Oc2ccc([N+](=O)[O-])cc2)O[C@H](CO)[C@H](O)[C@@H]1O [p-NitrophenylN-acetyl-β-Zgalactosaminide] |  | < 0.3 | 
